Measured values: patent US6933304B2, “Heteroarylalkanoic acids as integrin receptor antagonists” (Pharmacia Corporation, priority 2000, dated 2005)
Where a name gives a salt, the structure may show the parent alone.

Experiments:
[1] = target: T1, αVβ3 integrin (293-β3 cells) (Homo sapiens, UniProt P05106+P06756); assay: 293-β3 cell adhesion assay (adhesion to immobilized vitronectin); format: cell-based; conditions: 200 uM Mn2+, read-out: 293-β3 (IC50 <10 μM)
T1 construct: expressed in transfected cells; host or cells: 293 human embryonic kidney cells (293-β3)
Source text: While the β3 subunit of αVβ3 is only known to complex with αV or αIIb, the αV subunit complexes with multiple β subunits. The three αV integrins most homologous with αVβ3 are αVβ1, αVβ5 and αVβ6, with 43%, 56% and 47% amino acid identity in the β subunits, respectively. To evaluate the selectivity of compounds between the integrins αVβ3 and αVβ6, cell-based assays were established using the 293 human embryonic kidney cell line. 293 cells express αVβ1, but little to no detectable αVβ3 or αVβ6. cDNAs for β3 and β6 were transfected separately into 293 cells to generate 293-β3 and 293-β6 cells, respectively. High surface expression of αVβ3 and αVβ6 was confirmed by flow cytometry. Conditions were established for each cell line in which cell adhesion to immobilized human vitronectin was mediated by the appropriate integrin, as determined by a panel of integrin-specific, neutralizing monoclonal antibodies. Briefly, cells were incubated with inhibitor in the presence of 200 uM Mn^2+, allowed to adhere to immobilized vitronectin, washed, and adherent cells are detected endogenous alkaline phosphatase and para-nitrophenyl phosphate. An 8-point dose-response curve using either 10-fold or 3-fold dilutions of compound was evaluated by fitting a four-parameter logistic, nonlinear model (using SAS).

[2] = target: T2, Human fibrinogen receptor (IIb/IIIa) (Homo sapiens, UniProt P05106+P08514); assay: Purified IIb/IIIa receptor assay (solid phase receptor assay, SPRA); format: binding; conditions: selectivity ratio: IC50 αIIbβ3 (solid phase receptor assay) over IC50 β3
T2 construct: Human fibrinogen receptor (IIb/IIIa) was purified from outdated platelets; from tissue; host or cells: outdated human platelets
Source text: Human fibrinogen receptor (IIb/IIIa) was purified from outdated platelets. (Pytela, R., Pierschbacher, M. D., Argraves, S., Suzuki, S., and Rouslahti, E. “Arginine-Glycine-Aspartic acid adhesion receptors”, Methods in Enzymology 144(1987):475-489.) Human vitronectin was purified from fresh frozen plasma as described in Yatohgo, T., Izumi, M., Kashiwagi, H., and Hayashi, M., “Novel purification of vitronectin from human plasma by heparin affinity chromatography,” Cell Structure and Function 13(1988):281-292. Biotinylated human vitronectin was prepared by coupling NHS-biotin from Pierce Chemical Company (Rockford, IL) to purified vitronectin as previously described. (Charo, I. F., Nannizzi, L., Phillips, D. R., Hsu, M. A., Scarborough, R. M., “Inhibition of fibrinogen binding to GP IIb/IIIa by a GP IIIa peptide”, J. Biol. Chem. 266(3)(1991): 1415-1421.) Assay buffer, OPD substrate tablets, and RIA grade BSA were obtained from Sigma (St. Louis, Mo.). Anti-biotin antibody was obtained from Sigma (St. Louis, Mo.). Nalge Nunc-Immuno microtiter plates were obtained from (Rochester, N.Y.). ADP reagent was obtained from Sigma (St. Louis, Mo.).
This assay is essentially the same reported in Niiya, K., Hodson, E., Bader, R., Byers-Ward, V. Koziol, J. A., Plow, E. F. and Ruggeri, Z. M., “Increased surface expression of the membrane glycoprotein IIb/IIIa complex induced by platelet activation: Relationships to the binding of fibrinogen and platelet aggregation”, Blood 70(1987):475-483. The purified human fibrinogen receptor (IIb/IIIa) was diluted from stock solutions to 1.0 μg/mL in Tris-buffered saline containing 1.0 mM Ca^++, Mg^++, and Mn^++, pH 7.4 (TBS^+++). The diluted receptor was immediately transferred to Nalge Nunc-Immuno microtiter plates at 100 μL/well (100 ng receptor/well). The plates were sealed and incubated overnight at 4° C. to allow the receptors to bind to the wells. All remaining steps were at room temperature. The assay plates were emptied and 200 μL of 1% RIA grade BSA in TBS^+++ (TBS^+++/BSA) were added to block exposed plastic surfaces. Following a 2 hour incubation, the assay plates were washed with TBS^+++ using a 96 well plate washer. Logarithmic serial dilution of the test compound and controls were made starting at a stock concentration of […] and using 2 nM biotinylated vitronectin in TBS^+++/BSA as the diluent. This premixing of labeled ligand with test (or control) ligand, and subsequent transfer of 50 μL aliquots to the assay plate was carried out with a CETUS Propette robot; the final concentration of the labeled ligand was 1 nM and the highest concentration of test compound was 1.0×10^−4 M. The competition occurred for two hours after which all wells were washed with a plate washer as before. Affinity purified horseradish peroxidase labeled goat anti-biotin antibody was diluted 1:2000 in TBS^+++/BSA and 125 μL were added to each well. After 45 minutes, the plates were washed and incubated with […] substrate in 100 mM/L citrate buffer, pH 5.0. The plate was read with a microtiter plate reader at a wavelength of 450 nm and when the maximum-binding control wells reached an absorbance of about 1.0, the final A450 were recorded for analysis. The data were analyzed using a macro written for use with the EXCELJ spreadsheet program. The mean, standard deviation, and %CV were determined for duplicate concentrations. The mean A450 values were normalized to the mean of four maximum-binding controls (no competitor added)(B-MAX). The normalized values were subjected to a four parameter curve fit algorithm, [Robard et al., Int.

[3] = target: T3, αVβ6 (HT-29 human colon carcinoma cells) (Homo sapiens, UniProt P06756+P18564); assay: HT-29 cell adhesion assay (adhesion to immobilized LAP); format: cell-based; conditions: selectivity ratio: IC50 αVβ6 (HT-29) over IC50 β3
T3 construct: endogenous in cells; host or cells: HT-29 human colon carcinoma cells
Description: To evaluate compound potency for membrane-bound αVβ6 an additional cell-based adhesion assay was established using the HT-29 human colon carcinoma cell line. High surface expression of αVβ6 on HT-29 cells was confirmed by flow cytometry. Conditions were established in which cell adhesion to immobilized human latency associated peptide (LAP) was mediated by the αVβ6, as determined by a panel of integrin-specific, neutralizing monoclonal antibodies. Briefly, cells were incubated with inhibitor in the presence of 200 uM Mn^2+, allowed to adhere to immobilized LAP, washed, and adherent cells are detected by quantifying endogenous alkaline phosphatase using para-nitrophenyl phosphate. An 8-point dose-response curve using either 10-fold or 3-fold dilutions of compound was evaluated by fitting a four-parameter logistic, nonlinear model (using SAS). The compounds evaluated were relatively ineffective at inhibition of αVβ6-mediated cell adhesion. The selective antagonism of the αVβ3 integrin is viewed as desirable in this class of compounds, as αVβ6 may also play a role in normal physiological processes of tissue repair and cellular turnover that routinely occur in the skin and pulmonary tissues.

T2 sequence (P08514 32-887 limits assumed): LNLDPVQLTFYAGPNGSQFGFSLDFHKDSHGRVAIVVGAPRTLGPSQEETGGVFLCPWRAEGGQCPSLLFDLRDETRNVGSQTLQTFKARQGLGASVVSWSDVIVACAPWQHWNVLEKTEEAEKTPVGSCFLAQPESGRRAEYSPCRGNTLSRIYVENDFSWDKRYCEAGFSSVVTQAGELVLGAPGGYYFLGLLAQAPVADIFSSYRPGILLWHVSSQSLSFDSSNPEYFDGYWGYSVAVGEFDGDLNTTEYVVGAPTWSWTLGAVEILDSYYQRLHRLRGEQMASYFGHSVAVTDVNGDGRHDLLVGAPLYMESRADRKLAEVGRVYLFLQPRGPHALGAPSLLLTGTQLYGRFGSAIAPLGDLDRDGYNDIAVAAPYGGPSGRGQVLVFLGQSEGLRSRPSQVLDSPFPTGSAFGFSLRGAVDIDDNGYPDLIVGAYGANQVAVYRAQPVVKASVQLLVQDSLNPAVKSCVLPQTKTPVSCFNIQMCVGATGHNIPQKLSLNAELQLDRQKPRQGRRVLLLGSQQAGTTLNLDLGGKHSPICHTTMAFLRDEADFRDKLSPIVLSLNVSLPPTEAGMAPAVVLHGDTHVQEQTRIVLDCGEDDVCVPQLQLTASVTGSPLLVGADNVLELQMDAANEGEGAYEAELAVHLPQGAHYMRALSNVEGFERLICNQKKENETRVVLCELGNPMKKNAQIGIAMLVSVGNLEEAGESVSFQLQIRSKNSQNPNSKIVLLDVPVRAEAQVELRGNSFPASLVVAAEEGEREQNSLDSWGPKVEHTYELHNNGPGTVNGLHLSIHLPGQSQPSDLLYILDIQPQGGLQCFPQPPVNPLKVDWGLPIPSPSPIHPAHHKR
T2 sequence (P08514 891-1039 partner limits assumed): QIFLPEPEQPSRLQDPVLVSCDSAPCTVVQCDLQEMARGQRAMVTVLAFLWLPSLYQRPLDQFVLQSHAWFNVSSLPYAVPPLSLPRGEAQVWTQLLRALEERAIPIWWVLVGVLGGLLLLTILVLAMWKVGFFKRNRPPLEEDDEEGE
T2 sequence (P05106 27-788): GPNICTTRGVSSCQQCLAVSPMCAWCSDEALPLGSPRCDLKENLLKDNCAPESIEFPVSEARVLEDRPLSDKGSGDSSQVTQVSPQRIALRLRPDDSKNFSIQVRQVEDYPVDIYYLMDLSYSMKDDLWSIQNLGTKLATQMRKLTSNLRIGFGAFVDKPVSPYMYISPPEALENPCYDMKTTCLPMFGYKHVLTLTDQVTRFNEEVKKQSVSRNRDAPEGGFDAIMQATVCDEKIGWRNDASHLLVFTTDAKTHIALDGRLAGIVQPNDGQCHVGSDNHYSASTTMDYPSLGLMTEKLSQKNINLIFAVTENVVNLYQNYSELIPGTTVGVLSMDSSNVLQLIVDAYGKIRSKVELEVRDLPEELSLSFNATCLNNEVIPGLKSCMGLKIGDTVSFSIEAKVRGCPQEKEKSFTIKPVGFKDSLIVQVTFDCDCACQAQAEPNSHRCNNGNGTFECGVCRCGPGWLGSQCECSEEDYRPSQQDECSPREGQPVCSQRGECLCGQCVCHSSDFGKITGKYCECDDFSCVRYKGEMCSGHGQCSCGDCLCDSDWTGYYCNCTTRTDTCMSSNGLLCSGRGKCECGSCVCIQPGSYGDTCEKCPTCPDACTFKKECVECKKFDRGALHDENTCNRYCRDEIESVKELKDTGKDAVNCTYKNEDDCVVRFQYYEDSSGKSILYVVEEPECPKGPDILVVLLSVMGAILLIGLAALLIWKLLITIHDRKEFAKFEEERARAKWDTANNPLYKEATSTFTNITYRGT
T3 sequence (P06756 31-889 limits assumed): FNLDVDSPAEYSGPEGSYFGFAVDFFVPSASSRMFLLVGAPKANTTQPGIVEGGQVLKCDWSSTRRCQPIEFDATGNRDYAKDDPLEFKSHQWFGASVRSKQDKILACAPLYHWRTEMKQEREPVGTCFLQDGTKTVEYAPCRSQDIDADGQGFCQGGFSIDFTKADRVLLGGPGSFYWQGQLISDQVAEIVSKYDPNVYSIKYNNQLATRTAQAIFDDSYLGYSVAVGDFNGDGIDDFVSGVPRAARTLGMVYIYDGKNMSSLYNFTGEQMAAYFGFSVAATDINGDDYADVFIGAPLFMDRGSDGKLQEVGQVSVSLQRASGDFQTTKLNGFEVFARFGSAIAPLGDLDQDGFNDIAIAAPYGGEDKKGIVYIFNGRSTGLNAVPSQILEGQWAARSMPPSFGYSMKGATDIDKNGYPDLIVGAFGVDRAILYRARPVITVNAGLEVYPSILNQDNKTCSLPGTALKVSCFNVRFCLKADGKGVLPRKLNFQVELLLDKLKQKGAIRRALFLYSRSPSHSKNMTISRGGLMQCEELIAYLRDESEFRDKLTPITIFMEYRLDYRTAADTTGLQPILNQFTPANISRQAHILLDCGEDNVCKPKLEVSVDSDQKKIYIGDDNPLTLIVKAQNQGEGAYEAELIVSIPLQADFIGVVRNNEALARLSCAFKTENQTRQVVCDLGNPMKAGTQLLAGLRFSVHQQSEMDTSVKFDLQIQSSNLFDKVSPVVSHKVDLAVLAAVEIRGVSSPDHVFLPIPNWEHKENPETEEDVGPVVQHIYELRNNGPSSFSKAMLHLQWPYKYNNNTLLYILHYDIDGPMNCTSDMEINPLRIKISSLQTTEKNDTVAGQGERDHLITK
T3 sequence (P06756 891-1048 partner limits assumed): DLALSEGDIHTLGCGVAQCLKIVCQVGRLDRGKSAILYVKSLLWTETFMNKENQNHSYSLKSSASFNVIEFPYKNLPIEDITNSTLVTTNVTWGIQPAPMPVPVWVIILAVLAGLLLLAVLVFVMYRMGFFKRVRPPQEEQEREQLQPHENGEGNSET
T3 sequence (P18564 22-788): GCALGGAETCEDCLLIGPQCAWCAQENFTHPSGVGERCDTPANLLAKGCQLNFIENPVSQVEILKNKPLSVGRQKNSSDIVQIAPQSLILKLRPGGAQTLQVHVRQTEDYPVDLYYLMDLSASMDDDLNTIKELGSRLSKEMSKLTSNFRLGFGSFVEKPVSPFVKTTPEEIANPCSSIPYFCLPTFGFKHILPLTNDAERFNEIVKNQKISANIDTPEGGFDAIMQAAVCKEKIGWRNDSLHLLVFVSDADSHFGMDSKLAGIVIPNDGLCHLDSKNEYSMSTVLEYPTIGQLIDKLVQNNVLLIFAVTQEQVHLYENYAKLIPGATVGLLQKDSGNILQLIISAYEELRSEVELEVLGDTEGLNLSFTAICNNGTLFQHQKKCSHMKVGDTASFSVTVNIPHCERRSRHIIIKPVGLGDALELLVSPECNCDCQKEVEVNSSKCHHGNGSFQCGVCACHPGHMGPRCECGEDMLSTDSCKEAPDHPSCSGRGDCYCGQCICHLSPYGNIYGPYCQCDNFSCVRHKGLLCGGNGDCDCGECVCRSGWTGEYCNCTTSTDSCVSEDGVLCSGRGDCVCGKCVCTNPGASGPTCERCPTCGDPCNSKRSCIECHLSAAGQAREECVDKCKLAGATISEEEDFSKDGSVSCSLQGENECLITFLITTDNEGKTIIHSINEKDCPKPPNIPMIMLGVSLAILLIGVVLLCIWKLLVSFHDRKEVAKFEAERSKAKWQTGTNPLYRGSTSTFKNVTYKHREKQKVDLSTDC
T1 sequence (P06756 31-889 limits assumed): as the sequence (P06756 31-889 limits assumed) above
T1 sequence (P06756 891-1048 partner limits assumed): as the sequence (P06756 891-1048 partner limits assumed) above
T1 sequence (P05106 27-788): as the sequence (P05106 27-788) above

IC50 [1] [µM] | SPRA AIIbB3 Selectivity* IIbIIIa/β3 [2] | HT-29 β-6 Selectivity* (β6/β3) [3] | SMILES
< 10 | ++ (Selectivity Ratio of 10-100 ++) | +++ (Selectivity Ratio >100 +++) | CC(CC(=O)O)Cc1nc(CCCCNc2ccccn2)no1.Cl (stereo not drawn) [Example 69, 3-methyl-4-{3-[4-(pyridin-2-ylamino)butyl]-1,2,4-oxadiazol-5-yl}butanoic acid]
< 10 | ++ (Selectivity Ratio of 10-100 ++) | +++ (Selectivity Ratio >100 +++) | O=C(O)C(F)(F)F.O=C(O)CC(Cc1nc(CCCCNc2ccccn2)no1)c1cnc2ccccc2c1 (stereo not drawn) [Example 19, 3-quinolin-3-yl-4-{3-[4-(pyridin-2-ylamino)butyl]-1,2,4-oxadiazol-5-yl}-butanoic acid]
< 10 | +++ (Selectivity Ratio >100 +++) | +++ (Selectivity Ratio >100 +++) | O=C(O)CC(Cc1nc(CCCc2ccc3c(n2)NCCC3)no1)c1ccccc1 (stereo not drawn) [Example 34, 3-phenyl-4-{3-[3-(5,6,7,8-tetrahydro-1,8-naphthyridin-2-yl)propyl]-1,2,4-oxadiazol-5-yl}butanoic acid trifluoroacetate]
< 10 | +++ (Selectivity Ratio >100 +++) | +++ (Selectivity Ratio >100 +++) | O=C(O)CCCc1nc(CCCc2ccc3c(n2)NCCC3)no1 [Example 50, 4-{3-[3-(5,6,7,8-Tetrahydro-[1,8]naphthyridin-2-yl)-propyl]-[1,2,4]oxadiazol-5-yl}-butyric acid]
< 10 | +++ (Selectivity Ratio >100 +++) | ++ (Selectivity Ratio of 10-100 ++) | CCC(CC)(CC(=O)O)Cc1nc(CCCCNc2ccccn2)no1 [Example 40, 3-ethyl-3-({3-[4-(pyridin-2-ylamino)butyl]-1,2,4-oxadiazol-5-yl}methyl)-pentanoic acid]
< 10 | +++ (Selectivity Ratio >100 +++) | +++ (Selectivity Ratio >100 +++) | CC(CC(=O)O)(Cc1nc(CCCCNc2ccccn2)no1)c1cccnc1 (stereo not drawn) [Example 57, 3-Methyl-3-pyridin-3-yl-4-{3-[4-(pyridin-2-ylamino)-butyl]-[1,2,4]oxadiazol-5-yl}-butyric acid]
< 10 | ++ (Selectivity Ratio of 10-100 ++) | +++ (Selectivity Ratio >100 +++) | O=C(O)CC(Cc1nc(CCCCNc2ccccn2)no1)c1ccccc1 (stereo not drawn) [Example 35, 3-phenyl-4-{3-[4-(pyridin-2-ylamino)butyl]-1,2,4-oxadiazol-5-yl}butanoic acid]
< 10 | +++ (Selectivity Ratio >100 +++) | +++ (Selectivity Ratio >100 +++) | O=C(O)C(F)(F)F.O=C(O)CC(Cc1nc(CCCCNc2ccccn2)no1)c1ccc(F)cc1 (stereo not drawn) [Example 27, 3-(4-fluorophenyl)-4-{3-[4-(pyridin-2-ylamino)butyl]-1,2,4-oxadiazol-5-yl}butanoic acid]
< 10 | ++ (Selectivity Ratio of 10-100 ++) | ++ (Selectivity Ratio of 10-100 ++) | O=C(O)CC1(Cc2nc(CCCCNc3ccccn3)no2)CCCCC1 [Example 37, [1-({3-[4-(pyridin-2-ylamino)butyl]-1,2,4-oxadiazol-5-yl}methyl)cyclohexyl]-acetic acid]
< 10 | +++ (Selectivity Ratio >100 +++) | +++ (Selectivity Ratio >100 +++) | O=C(O)C(F)(F)F.O=C(O)CC(Cc1nc(CCCc2ccc3c(n2)NCCC3)no1)c1ccc2c(c1)OCO2 (stereo not drawn) [Example 16, 3-(1,3-benzodioxol-5-yl)-4-{3-[3-(5,6,7,8-tetrahydro-1,8-naphthyridin-2-yl)propyl]-1,2,4-oxadiazol-5-yl}butanoic acid]
< 10 | +++ (Selectivity Ratio >100 +++) | +++ (Selectivity Ratio >100 +++) | CC(CC(=O)O)(Cc1nc(CCCc2ccc3c(n2)NCCC3)no1)c1cccnc1 (stereo not drawn) [Example 51, 3-Methyl-3-pyridin-3-yl-4-{3-[3-(5,6,7,8-tetrahydro-[1,8]naphthyridin-2-yl)-propyl]-[1,2,4]oxadiazol-5-yl}-butyric acid]
< 10 | ++ (Selectivity Ratio of 10-100 ++) | +++ (Selectivity Ratio >100 +++) | O=C(O)CCCc1nc(CCCCNc2ccccn2)no1 [Example 41, 4-{3-[4-(pyridin-2-ylamino)butyl]-1,2,4-oxadiazol-5-yl}butanoic acid]
< 10 | +++ (Selectivity Ratio >100 +++) | +++ (Selectivity Ratio >100 +++) | CC(CC(=O)O)(Cc1nc(CCCCNc2ccccn2)no1)c1ccccc1 (stereo not drawn) [Example 42, 3-methyl-3-phenyl-4-{3-[4-(pyridin-2-ylamino)butyl]-1,2,4-oxadiazol-5-yl}-butanoic acid]
< 10 | +++ (Selectivity Ratio >100 +++) | +++ (Selectivity Ratio >100 +++) | O=C(O)C(F)(F)F.O=C(O)CC(Cc1nc(CCCc2ccc3c(n2)NCCC3)no1)c1cccnc1 (stereo not drawn) [Example 32, 3-pyridin-3-yl-4-{3-[3-(5,6,7,8-tetrahydro-1,8-naphthyridin-2-yl)propyl]-1,2,4-oxadiazol-5-yl}butanoic acid]
